Measurements reported in patent US20050250818A1, “Ortho substituted aryl or heteroaryl amide compounds” (Pfizer Inc, priority 2004, published 2005).

Biological target: T1, human EP4 receptors (Homo sapiens, UniProt P35408)
T1 construct: expressed in transfected cells
Assay: cAMP assay in human EP4 transfectant
Type: cell-based
Details: HEK293 cells expressing human EP4 receptors; 1 nM PGE2, 0.2 mM IBMX, 37° C. for 10 min
Method: cAMP Assay in Human EP4 Transfectant HEK293 cells expressing human EP4 receptors (hEP4 cells) are maintained in DMEM containing 10% FBS and 500 μg/ml geneticin. For harvesting hEP4 cells, culture medium is aspirated and cells in 75 cm^2 flask are washed with 10 ml of phosphate buffered saline (PBS). Another 10 ml of PBS is added to the cells and incubated for 20 min at room temperature. Human EP4 cells are harvested by pipetting and centrifuged at 300×g for 4 min. Cells are resuspended in DMEM without neutral red at a density of 7×10^5 cells/ml containing 0.2 mM IBMX (PDE inhibitor), 1 nM PGE2 and test compounds in PCR-tubes, and incubated at 37° C. for 10 min. The reaction is stopped by heating at 100° C. for 10 min with thermal cycler. Concentration of cAMP in reaction mixtures is determined with SPA cAMP Kit (Amersham) or cAMP Screen™ (Applied Biosystems) according to the manufacture's instruction. Reference: Eur. J. Pharmacol. 340 (1997) 227-241 cAMP assay in human EP4 transfectant were conducted using the method described above. IC50: the concentration of the individual compound required to reduce the amount of ligand by 50%.

T1 sequence (P35408 whole entry): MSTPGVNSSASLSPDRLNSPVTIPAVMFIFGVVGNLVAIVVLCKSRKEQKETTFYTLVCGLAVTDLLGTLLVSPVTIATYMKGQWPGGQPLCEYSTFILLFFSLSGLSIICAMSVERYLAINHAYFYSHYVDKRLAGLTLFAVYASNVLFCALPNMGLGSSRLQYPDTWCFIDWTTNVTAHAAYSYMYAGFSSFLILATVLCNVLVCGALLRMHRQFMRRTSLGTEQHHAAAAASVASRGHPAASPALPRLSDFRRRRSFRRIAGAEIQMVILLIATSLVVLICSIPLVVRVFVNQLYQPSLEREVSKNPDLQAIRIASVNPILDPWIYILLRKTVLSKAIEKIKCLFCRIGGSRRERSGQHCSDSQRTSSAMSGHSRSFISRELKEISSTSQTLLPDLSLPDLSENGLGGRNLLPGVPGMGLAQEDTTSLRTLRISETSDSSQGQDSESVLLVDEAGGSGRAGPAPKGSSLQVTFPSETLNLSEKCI

SMILES | IC50 [nM]
C[C@H](NC(=O)c1cc(Cl)cnc1OCc1ccccc1Cl)c1ccc(C(=O)O)cc1 [EXAMPLE 39, 4-{(1S)-1-[({5-CHLORO-2-[(2-CHLOROBENZYL)OXY]PYRIDIN-3-YL}CARBONYL)AMINO]ETHYL}BENZOIC ACID] | 76
C[C@H](NC(=O)c1cc(Cl)cnc1OCc1ccc(Cl)cc1)c1ccc(C(=O)O)cc1 [EXAMPLE 40, 4-{(1S)-1-[({5-CHLORO-2-[(4-CHLOROBENZYL)OXY]PYRIDIN-3-YL}CARBONYL)AMINO]ETHYL}BENZOIC ACID] | 72
C[C@H](NC(=O)c1cc(Cl)ccc1OCc1ccccc1C#N)c1ccc(C(=O)O)cc1 [EXAMPLE 41, 4-[(1S)-1-({5-CHLORO-2-[(2-CYANOBENZYL)OXY]BENZOYL}AMINO)ETHYL]BENZOIC ACID] | 39
C[C@H](NC(=O)c1cc(Cl)ccc1OCCC1CCOCC1)c1ccc(C(=O)O)cc1 [EXAMPLE 42, 4-[(1S)-1-({5-CHLORO-2-[2-(TETRAHYDRO-2H-PYRAN-4-YL)ETHOXY]BENZOYL}AMINO)ETHYL]BENZOIC ACID] | 467
C[C@H](NC(=O)c1cc(Cl)ccc1OCc1cccc(F)c1)c1ccc(C(=O)O)cc1 [EXAMPLE 43, 4-[(1S)-1-({5-CHLORO-2-[(3-FLUOROBENZYL)OXY]BENZOYL}AMINO)ETHYL]BENZOIC ACID] | 140
Cc1cc(COc2ccc(Cl)cc2C(=O)N[C@@H](C)c2ccc(C(=O)O)cc2)no1 [EXAMPLE 44, 4-[(1S)-1-({5-CHLORO-2-[(5-METHYLISOXAZOL-3-YL)METHOXY]BENZOYL}AMINO)ETHYL]BENZOIC ACID] | 130
C[C@H](NC(=O)c1cc(Cl)ccc1OCc1ccc(Cl)cc1F)c1ccc(C(=O)O)cc1 [EXAMPLE 45, 4-[(1S)-1-({5-CHLORO-2-[(4-CHLORO-2-FLUOROBENZYL)OXY]BENZOYL}AMINO)ETHYL]BENZOIC ACID] | 65
C[C@H](NC(=O)c1cc(Cl)ccc1OCc1ccc(F)cc1Cl)c1ccc(C(=O)O)cc1 [EXAMPLE 46, 4-[(1S)-1-({5-CHLORO-2-[(2-CHLORO-4-FLUOROBENZYL)OXY]BENZOYL}AMINO)ETHYL]BENZOIC ACID] | 55
C[C@H](NC(=O)c1cc(Cl)ccc1OCc1ncccc1Cl)c1ccc(C(=O)O)cc1 [EXAMPLE 47, 4-[(1S)-1-({5-CHLORO-2-[(3-CHLOROPYRIDIN-2-YL)METHOXY]BENZOYL}AMINO)ETHYL]BENZOIC ACID] | 480
C[C@H](NC(=O)c1cc(Cl)cnc1N(C)Cc1ccccc1Cl)c1ccc(C(=O)O)cc1 [EXAMPLE 48, 4-{(1S)-1-[({5-CHLORO-2-[(2-CHLOROBENZYL)(METHYL)AMINO]PYRIDIN-3-YL}CARBONYL)AMINO]ETHYL}BENZOIC ACID] | 100
C[C@H](NC(=O)c1cc(Cl)ccc1OCC1CCCO1)c1ccc(C(=O)O)cc1 (stereo partly drawn) [EXAMPLE 49, 4-((1S)-1-{[5-CHLORO-2-(TETRAHYDROFURAN-2-YLMETHOXY)BENZOYL]AMINO}ETHYL)BENZOIC ACID] | 360
C[C@H](NC(=O)c1cc(Cl)cnc1N(C)Cc1ccccc1F)c1ccc(C(=O)O)cc1 [EXAMPLE 50, 4-{(1S)-1-[({5-CHLORO-2-[(2-FLUOROBENZYL)(METHYL)AMINO]PYRIDIN-3-YL}CARBONYL)AMINO]ETHYL}BENZOIC ACID] | 120
C[C@H](NC(=O)c1cc(Cl)cnc1N(C)Cc1ccc(Cl)cc1)c1ccc(C(=O)O)cc1 [EXAMPLE 51, 4-{(1S)-1-[({5-CHLORO-2-[(4-CHLOROBENZYL)(METHYL)AMINO]PYRIDIN-3-YL}CARBONYL)AMINO]ETHYL}BENZOIC ACID] | 25
C[C@H](NC(=O)c1cc(Cl)cnc1N(C)Cc1cccc(Cl)c1)c1ccc(C(=O)O)cc1 [EXAMPLE 52, 4-{(1S)-1-[({5-CHLORO-2-[(3-CHLOROBENZYL)(METHYL)AMINO]PYRIDIN-3-YL}CARBONYL)AMINO]ETHYL}BENZOIC ACID] | 65
C[C@H](NC(=O)c1cc(Cl)cnc1N(C)Cc1cccc(F)c1)c1ccc(C(=O)O)cc1 [EXAMPLE 53, 4-{(1S)-1-[({5-CHLORO-2-[(3-FLUOROBENZYL)(METHYL)AMINO]PYRIDIN-3-YL}CARBONYL)AMINO]ETHYL}BENZOIC ACID] | 180
C[C@H](NC(=O)c1cc(Cl)cnc1N(C)Cc1ccc(F)cc1)c1ccc(C(=O)O)cc1 [EXAMPLE 54, 4-{(1S)-1-[({5-CHLORO-2-[(4-FLUOROBENZYL)(METHYL)AMINO]PYRIDIN-3-YL}CARBONYL)AMINO]ETHYL}BENZOIC ACID] | 110
